# Assays:
# [1] = test system: IL-15 induced STAT5 phosphorylation in human whole blood lymphocytes; assay: HWB IL-15 induced STAT5 phosphorylation assay; assay type: cell-based; settings: Lymphocyte, IL-15 stimulated, read-out: HWB-IL15-pSTAT5 IC50
# Description: HWB IL-15 Induced STAT5 Phosphorylation Assay
# After mixing and incubating for 45 minutes at 37° C., 5 μl D-PBS (unstimulated control) or 20× stocks of 5 μl human IL-15 (final concentration is 50 ng/ml) were added, and mixed three times. After incubating 15 minutes at 37° C., 1× Lyse/Fix Buffer (BD Phosflow 5× Lyse/Fix Buffer) was added to all wells at 1000 μl/well, then incubated for 20 minutes at 37° C. and spun 5 mins at 1200 rpm. […] Following incubating at 4° C. over night, all the samples were transferred to 96-well polypropylene U-bottom plate, and checked by flow cytometry gated on total lymphocytes.
# [2] = target: T1, JAK3 enzyme (Homo sapiens (Human), UniProt P52333); assay: JAK Caliper enzyme assay at 1 mM ATP; assay type: biochemical
# Description: (§1) JAK Caliper Enzyme Assay at 4 μM or 1 mM ATP
# (§2) Test article was solubilized in dimethyl sulfoxide (DMSO) to a stock concentration of 30 mM. An 11-point half log dilution series was created in DMSO with a top concentration of 600 μM. […] The compound plates were diluted 1 to 60 resulting in a top final assay compound concentration of 10 μM and a 2% DMSO concentration.
# (§3) Test article and assay controls were added to a 384-well plate. Reaction mixtures contained 20 mM HEPES, pH 7.4, 10 mM magnesium chloride, 0.01% bovine serum albumin (BSA), 0.0005% Tween 20, 4 μM or 1 mM ATP and 1 μM peptide substrate. […] The assays were initiated by the addition 1 nM JAK3 enzyme and were incubated at room temperature 75 minutes for JAK3. Enzyme concentrations and incubation times were optimized for each new enzyme preps and were modified slightly over time to ensure 20%-30% phosphorylation. The assays were stopped with a final concentration of 10 mM EDTA, 0.1% Coating Reagent and 100 mM HEPES, pH=7.4. The assay plates were placed on a Caliper Life Science Lab Chip 3000 (LC3000) instrument, and each well was sampled using appropriate separation conditions to measure the unphosphorylated and phosphorylated peptide.
# [3] = target: T1, JAK3 enzyme; assay: JAK Caliper enzyme assay at 4 μM ATP; assay type: biochemical
# Description: as §1, §2, §3
# [4] = test system: IL-15 induced P-STAT5 in human PBMC; assay: PBMC IL-15 induced P-STAT5; assay type: cell-based; settings: IL-15 stimulated, read-out: PBMC IL15-STAT5 IC50
# Description: PBMC IL-15 Induced P-STAT5
# Frozen human PBMC (200-250 million cells/vial) was thawed at 37° C. The cells were transferred to 10 mL warm medium in a 50-mL conical tube, and centrifuged at 1,200 RPM at room temperature for 5 min. The supernatant was aspirated. […] After adding 47 ml D-PBS (37° C.) to PBMC/FBS suspension, centrifuging at 1,200 RPM at room temperature for 5 min, and aspirating the supernatant, the cells were resuspended in 20 mL warm RPMI medium. Ninety μL of cell suspension were pipetted per well in a 96-well, deep-well, V-bottom plate, and the plate was incubated at 37° C. for 30 min. […] After adding 0.8 mL staining buffer per well, the plates were centrifuged at 1,200 RPM (Beckman GS-6R or Sorvall Legend) at room temperature for 5 min, and again the supernatant was aspirated using a 8-channel or 12-channel manifold. The plate was vortexed, and 0.35 mL 90% methanol/10% H2O (−20° C.) was added per well, and the plate incubated on ice for 20 min. After again adding 0.8 mL staining buffer per well, the plates were centrifuged at 1,200 RPM (Beckman GS-6R or Sorvall Legend) at room temperature for 5 min, and again the supernatant was aspirated using a 8-channel or 12-channel manifold, and then 0.8 mL Staining buffer was added per well. […] Samples were analyzed using a BD Calibur™ or BD FACSCanto™ flow cytometer equipped with the BD High Throughput Sampler.
# T1 sequence (P52333 whole entry, species assumed): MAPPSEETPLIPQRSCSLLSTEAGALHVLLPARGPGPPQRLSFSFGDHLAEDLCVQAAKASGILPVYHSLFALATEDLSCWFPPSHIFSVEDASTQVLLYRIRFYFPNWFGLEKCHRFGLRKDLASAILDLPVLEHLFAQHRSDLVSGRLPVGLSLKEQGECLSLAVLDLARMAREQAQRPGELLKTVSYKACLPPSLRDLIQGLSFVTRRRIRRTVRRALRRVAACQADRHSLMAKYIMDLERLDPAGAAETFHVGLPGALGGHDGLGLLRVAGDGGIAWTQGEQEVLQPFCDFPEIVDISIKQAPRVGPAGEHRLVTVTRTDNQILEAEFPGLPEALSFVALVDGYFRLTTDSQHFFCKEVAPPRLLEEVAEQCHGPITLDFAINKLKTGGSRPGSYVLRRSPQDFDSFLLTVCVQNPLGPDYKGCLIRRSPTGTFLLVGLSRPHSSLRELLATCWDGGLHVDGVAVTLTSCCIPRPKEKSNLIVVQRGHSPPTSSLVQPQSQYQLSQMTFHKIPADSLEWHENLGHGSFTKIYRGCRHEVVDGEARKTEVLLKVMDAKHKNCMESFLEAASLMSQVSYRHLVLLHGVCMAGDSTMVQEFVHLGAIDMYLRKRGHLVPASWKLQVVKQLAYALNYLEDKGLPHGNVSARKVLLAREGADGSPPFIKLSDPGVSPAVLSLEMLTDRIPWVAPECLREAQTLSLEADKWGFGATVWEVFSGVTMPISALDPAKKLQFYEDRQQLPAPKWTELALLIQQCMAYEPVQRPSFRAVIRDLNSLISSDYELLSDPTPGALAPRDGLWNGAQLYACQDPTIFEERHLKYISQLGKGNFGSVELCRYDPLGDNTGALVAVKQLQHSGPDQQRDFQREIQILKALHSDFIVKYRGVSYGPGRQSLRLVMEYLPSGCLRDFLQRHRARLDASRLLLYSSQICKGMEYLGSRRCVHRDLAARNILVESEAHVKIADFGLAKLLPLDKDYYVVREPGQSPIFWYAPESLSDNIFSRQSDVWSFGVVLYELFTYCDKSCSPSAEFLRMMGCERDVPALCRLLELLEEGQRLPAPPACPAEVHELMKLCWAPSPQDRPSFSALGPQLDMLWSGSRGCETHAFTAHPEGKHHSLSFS
smiles,measurement,setting,value
"C=CC(=O)N1C[C@H](Nc2ncnc3[nH]ccc23)[C@H]2CC[C@@H]1C2 (racemic) [Example 116, Rac-1-((1R,4R,5S)-4-(7H-pyrrolo[2,3-d]pyrimidin-4-ylamino)-2-azabicyclo[3.2.1]octan-2-yl)prop-2-en-1-one]",IC50,[1],> 10 µM
same,IC50,[2],> 10 µM
same,IC50,[3],0.418 µM
same,IC50,[4],> 10 µM

# Source: patent US9617258B2, “Pyrrolo[2,3-d]pyrimidinyl, pyrrolo[2,3-b]pyrazinyl and pyrrolo[2,3-d]pyridinyl acrylamides” (Pfizer Inc., priority 2013, dated 2017)
